Data: ChEMBL document CHEMBL3877333, “Bicyclic Ketone Sulfonamide Compounds” (ACS Med Chem Lett, 2017)
pIC50: −log10 of the molar value.

Biological target: Sodium channel protein type 9 subunit alpha (Homo sapiens, UniProt Q15858)
Assay: Inhibition of human Nav1.7 expressed in HEK293 cells at holding potential yielding 20 to 50% inactivation measured after 3 mins by patchXpress electrophysiology assay
Format: cell-based

Sodium channel protein type 9 subunit alpha, sequence (Q15858 whole entry): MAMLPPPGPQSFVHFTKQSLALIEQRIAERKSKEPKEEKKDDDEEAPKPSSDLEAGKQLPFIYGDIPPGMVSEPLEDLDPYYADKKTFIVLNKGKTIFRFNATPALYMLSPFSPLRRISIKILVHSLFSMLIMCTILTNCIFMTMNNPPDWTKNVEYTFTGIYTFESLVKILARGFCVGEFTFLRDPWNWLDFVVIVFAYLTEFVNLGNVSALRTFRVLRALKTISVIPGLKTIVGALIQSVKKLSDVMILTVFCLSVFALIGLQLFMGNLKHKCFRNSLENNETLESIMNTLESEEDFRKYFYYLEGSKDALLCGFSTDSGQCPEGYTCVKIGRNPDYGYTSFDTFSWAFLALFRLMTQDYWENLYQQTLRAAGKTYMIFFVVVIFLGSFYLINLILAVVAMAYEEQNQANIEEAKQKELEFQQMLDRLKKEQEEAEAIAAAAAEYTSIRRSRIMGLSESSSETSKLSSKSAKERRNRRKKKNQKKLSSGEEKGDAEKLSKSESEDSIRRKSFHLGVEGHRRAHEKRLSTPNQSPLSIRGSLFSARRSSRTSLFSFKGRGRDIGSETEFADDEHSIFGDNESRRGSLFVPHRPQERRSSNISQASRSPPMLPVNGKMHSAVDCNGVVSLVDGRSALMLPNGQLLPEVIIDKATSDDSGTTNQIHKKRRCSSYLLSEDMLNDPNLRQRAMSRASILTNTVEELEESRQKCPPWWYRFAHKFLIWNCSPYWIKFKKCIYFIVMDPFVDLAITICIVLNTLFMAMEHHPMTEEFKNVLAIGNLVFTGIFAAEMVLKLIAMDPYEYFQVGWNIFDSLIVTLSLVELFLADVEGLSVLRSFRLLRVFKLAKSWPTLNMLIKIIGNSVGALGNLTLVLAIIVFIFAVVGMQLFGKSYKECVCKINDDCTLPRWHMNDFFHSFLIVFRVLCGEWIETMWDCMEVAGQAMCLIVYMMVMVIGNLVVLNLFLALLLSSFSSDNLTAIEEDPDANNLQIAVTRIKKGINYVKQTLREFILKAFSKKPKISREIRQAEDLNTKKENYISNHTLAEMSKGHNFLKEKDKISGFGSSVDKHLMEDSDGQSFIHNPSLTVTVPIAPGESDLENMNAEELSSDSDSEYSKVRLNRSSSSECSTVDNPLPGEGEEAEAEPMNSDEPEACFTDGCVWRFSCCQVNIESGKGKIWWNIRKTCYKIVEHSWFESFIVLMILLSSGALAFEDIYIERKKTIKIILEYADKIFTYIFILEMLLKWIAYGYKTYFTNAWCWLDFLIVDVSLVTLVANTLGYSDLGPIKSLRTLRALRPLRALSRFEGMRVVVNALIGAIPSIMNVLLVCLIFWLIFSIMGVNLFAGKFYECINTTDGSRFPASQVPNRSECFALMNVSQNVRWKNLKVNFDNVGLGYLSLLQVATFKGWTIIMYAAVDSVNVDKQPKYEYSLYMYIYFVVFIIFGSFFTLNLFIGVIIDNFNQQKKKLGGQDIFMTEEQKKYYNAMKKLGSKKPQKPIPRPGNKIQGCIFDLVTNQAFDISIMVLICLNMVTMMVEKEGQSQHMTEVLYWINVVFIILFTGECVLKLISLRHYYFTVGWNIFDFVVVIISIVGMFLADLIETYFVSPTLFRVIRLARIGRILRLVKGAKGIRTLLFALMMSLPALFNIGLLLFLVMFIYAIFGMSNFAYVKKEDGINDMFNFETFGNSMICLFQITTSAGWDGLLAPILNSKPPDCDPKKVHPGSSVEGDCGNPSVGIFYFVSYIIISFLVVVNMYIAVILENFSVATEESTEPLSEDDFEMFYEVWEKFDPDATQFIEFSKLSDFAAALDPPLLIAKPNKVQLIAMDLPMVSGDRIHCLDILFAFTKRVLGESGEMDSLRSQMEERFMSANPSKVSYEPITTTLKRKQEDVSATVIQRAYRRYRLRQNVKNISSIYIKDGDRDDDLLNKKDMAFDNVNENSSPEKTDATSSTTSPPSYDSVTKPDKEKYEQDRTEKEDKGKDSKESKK

SMILES	pIC50
COc1cc(-c2ccc(F)c(F)c2)c(F)cc1-n1c2c(ccc1=O)CN(S(=O)(=O)Nc1ccon1)CC2	8.17
COc1cc(-c2cc(OC)c(-n3c4c(ccc3=O)CN(S(=O)(=O)Nc3ccon3)CC4)cc2F)ccc1C	7.91
COc1cc(-c2cccc(C(F)(F)F)c2)c(F)cc1-n1c2c(ccc1=O)CN(S(=O)(=O)Nc1ccon1)CC2	8.33
COc1cc(-c2ccc(Cl)c(C)c2)c(F)cc1-n1c2c(ccc1=O)CN(S(=O)(=O)Nc1cccnn1)CC2	7.71
COc1cc(-c2cccc(OC(F)F)c2)c(F)cc1-n1c2c(ccc1=O)CN(S(=O)(=O)Nc1ccon1)CC2	8.26
COc1cc(-c2ccc(F)c(F)c2)c(F)cc1-n1c2c(ccc1=O)CN(S(=O)(=O)Nc1cccnn1)CC2	7.63
COc1cc(-c2cc(F)cc(Cl)c2)c(F)cc1-n1c2c(ccc1=O)CN(S(=O)(=O)Nc1ccon1)CC2	8.37
